The values that follow come from the supplement of paper PMC10307832.

Common to all, as to experiment: relative viability (nuclei count vs DMSO), 5 days (fraction); higher = more cells survive
Compound in test [1]: C(C(=O)C(=O)O)Br [Bromopyruvate] + CS(=O)(=O)CCNCc1ccc(-c2ccc3ncnc(Nc4ccc(OCc5cccc(F)c5)c(Cl)c4)c3c2)o1 [Lapatinib] (partner 2 µM)
An outline of the steps: (§1)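 Each reported value is a median over duplicate plates. It expresses relative viability: treated-well nuclei count divided by vehicle-well nuclei count. Lung cancer cell lines in 1536-well plates were dosed by pin tool a day after seeding, alone with one drug or with a fixed anchor-drug dose plus five library-drug doses (not always all listed) in √10 steps, and nuclei were counted after 5 days.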

Compound in test [2]: C(C(=O)C(=O)O)Br [Bromopyruvate] + C[C@]1(O)C[C@@H](c2nc(-c3ccc4ccc(-c5ccccc5)nc4c3)c3c(N)nccn32)C1 [Linsitinib] (partner 1 µM)
The essentials:
as §1

Compound in test [3]: CC(O)(CS(=O)(=O)c1ccc(F)cc1)C(=O)Nc1ccc(C#N)c(C(F)(F)F)c1 [Bicalutamide] + Nc1ncn([C@H]2C[C@H](O)[C@@H](CO)O2)c(=O)n1 [Decitabine] (partner 2 µM)
An outline of the steps: as §1

Compound in test [4]: CC(O)(CS(=O)(=O)c1ccc(F)cc1)C(=O)Nc1ccc(C#N)c(C(F)(F)F)c1 [Bicalutamide] + Cc1cc(Nc2cc(N3CCN(C)CC3)nc(Sc3ccc(NC(=O)C4CC4)cc3)n2)n[nH]1 [Tozasertib] (partner 0.1 µM)
An outline of the steps:
as §1

As to UMC-11, the relative viability in test [1] (first compound 1 µM) was 1.15; in test [1] (first compound 3.162 µM), 0.976; in test [1] (first compound 10 µM), 1.11; in test [1] (first compound 31.62 µM), 0.966; in test [1] (first compound 100 µM) it was 1.03; in test [2] (first compound 1 µM), 1.03. Besides, the relative viability is 1.08 in test [2] (first compound 3.162 µM); 0.884 in test [2] (first compound 10 µM); 0.987 in test [2] (first compound 31.62 µM); 1.03 in test [2] (first compound 100 µM); 0.535 in test [3] (first compound 0.08 µM); 0.507 in test [3] (first compound 0.253 µM). The relative viability in test [3] (first compound 0.8 µM) is 0.623; in test [3] (first compound 2.53 µM), 0.555; in test [4] (first compound 0.08 µM), 0.193; in test [4] (first compound 0.253 µM), 0.184; in test [4] (first compound 0.8 µM), 0.191; in test [4] (first compound 2.53 µM), 0.191.
